Target: T1, FGFR-1 (Homo sapiens, UniProt P11362)
T1 construct: GST; made in house
Experiment: FGFR-1 TR-FRET biochemical assay
Procedure: FGFR-1TR-FRET Biochemical Assay
The FGFR-1 Assay was performed on half well 96-well opaque plates (Costar 3915) in a LANCE format. LANCE is a homogenous time resolved fluormetry based application available through Perkin Elmer. For this assay, 50 uL reactions were set up using: 0.6 uM ATP (Sigma), 25 nM poly GT-biotin (CIS BIO International), 2 nM Eu-labelled phospho-Tyr Ab (PY20 PerkinElmer), 10 nM Streptavidin-APC (Perkin Elmer), 5 nM FGFR1-GST (generated by DRT, Bayer Healthcare), 1% DMSO, 50 mM HEPES pH 7.5, 10 mM MgCl2, 0.1 mM EDTA, 0.015% Brij, 0.1 mg/ml BSA, 0.1% B-mercaptoethanol. All reactions were initiated with the addition of enzyme and were left to incubate for one hour at room temperature. Time-resolved fluorescence was then read on a Perkin Elmer VictorV Multilabel counter. The reading protocol uses an excitation wavelength at 340 nm and emission reads at both 615 and 665 nm. Signal was calculated as a ratio: (Flourescence at 665 nm/Flourescence at 615 nM)*10000 for each well. The background control used for this assay is the signal produced with all assay components excluding ATP. For IC50 generation, compounds were added prior to the enzyme initiation. A 50-fold stock plate was made with compounds serially diluted 1:5 in a 50% DMSO/50% dH2O solution. A 1 μL addition of the stock to the assay wells gave final compound concentrations ranging from 10 μM-0.128 nM in 1% DMSO. The data were expressed as percent inhibition: % inhibition=100−((Signal with inhibitor−background)/(Signal without inhibitor−background))*100.

[1] = 0.6 uM ATP, 5 nM FGFR1-GST, bounds given in nM
[2] = upper bound of the bin 'greater than 100 nM but less than 1 μM' (lower bound in E1)

T1 sequence (P11362 22-822): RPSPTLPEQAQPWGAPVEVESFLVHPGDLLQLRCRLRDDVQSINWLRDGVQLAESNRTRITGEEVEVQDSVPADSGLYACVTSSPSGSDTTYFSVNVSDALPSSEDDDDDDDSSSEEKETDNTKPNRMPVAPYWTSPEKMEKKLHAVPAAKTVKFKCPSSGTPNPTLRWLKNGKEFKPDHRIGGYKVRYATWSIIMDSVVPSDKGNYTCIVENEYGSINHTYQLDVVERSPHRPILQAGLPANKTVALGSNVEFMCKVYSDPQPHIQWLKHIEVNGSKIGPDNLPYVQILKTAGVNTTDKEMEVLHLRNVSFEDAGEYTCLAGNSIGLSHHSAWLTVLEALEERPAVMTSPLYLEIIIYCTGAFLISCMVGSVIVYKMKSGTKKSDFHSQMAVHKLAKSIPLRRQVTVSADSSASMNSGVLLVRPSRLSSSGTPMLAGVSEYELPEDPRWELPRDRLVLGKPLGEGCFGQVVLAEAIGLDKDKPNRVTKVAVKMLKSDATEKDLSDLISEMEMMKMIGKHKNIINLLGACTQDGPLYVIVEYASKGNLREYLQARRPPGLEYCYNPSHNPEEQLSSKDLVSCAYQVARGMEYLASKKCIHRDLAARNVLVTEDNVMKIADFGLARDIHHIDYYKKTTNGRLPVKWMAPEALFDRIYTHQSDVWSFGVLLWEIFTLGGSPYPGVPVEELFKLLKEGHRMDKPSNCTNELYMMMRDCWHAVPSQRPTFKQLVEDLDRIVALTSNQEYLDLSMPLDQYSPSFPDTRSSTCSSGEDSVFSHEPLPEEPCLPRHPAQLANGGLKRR

IC50 [1] | IC50 [2] | Compound
10 to 100 nM |  | CC(C)(O)c1cc(-c2ccc(NC(=O)Nc3cc(C(F)(F)F)ccc3F)cc2)c2c(N)ncnn12 [Example 104, N-{4-[4-amino-7-(1-hydroxy-1-methylethyl)pyrrolo[2,1-f][1,2,4]triazin-5-yl]phenyl}-N′-[2-fluoro-5-(trifluoromethyl)phenyl]urea]
< 10 nM |  | Nc1ncnn2c(CCCN3CCOCC3)cc(-c3ccc(NC(=O)Nc4cc(C(F)(F)F)ccn4)cc3)c12 [Example 107, N-{4-[4-amino-7-(3-morpholin-4-ylpropyl)pyrrolo[2,1-f][1,2,4]triazin-5-yl]phenyl}-N′-[4-(trifluoromethyl)pyridin-2-yl]urea]
< 10 nM |  | Nc1ncnn2c(CCCN3CCOCC3)cc(-c3ccc(NC(=O)Nc4cc(C(F)(F)F)ccc4F)cc3)c12 [Example 108, N-{4-[4-amino-7-(3-morpholin-4-ylpropyl)pyrrolo[2,1-f][1,2,4]triazin-5-yl]phenyl}-N′-[2-fluoro-5-(trifluoromethyl)phenyl]urea]
< 10 nM |  | Nc1ncnn2c(CCCN3CCOCC3)cc(-c3ccc(NC(=O)Nc4cc(C(F)(F)F)ccc4F)c(F)c3)c12 [Example 109, N-{4-[4-amino-7-(3-morpholin-4-ylpropyl)pyrrolo[2,1-f][1,2,4]triazin-5-yl]-2-fluorophenyl}-N′-[2-fluoro-5-(trifluoromethyl)phenyl]urea]
< 10 nM |  | Nc1ncnn2c(C3CCNCC3)cc(-c3ccc(NC(=O)Nc4cc(C(F)(F)F)ccc4F)c(F)c3)c12 [Example 111, N-[4-(4-amino-7-piperidin-4-ylpyrrolo[2,1-f][1,2,4]-triazin-5-yl)-2-fluorophenyl]-N′-[2-fluoro-5-(trifluoromethyl)phenyl]urea]
> 100 nM | < 1000 nM | Nc1ncnn2c(C3CCN(C(=O)C(F)(F)F)CC3)cc(-c3ccc(NC(=O)Nc4cc(C(F)(F)F)ccc4F)c(F)c3)c12 [Example 112, N-(4-4-amino-7-[1-(trifluoroacetyl)piperidin-4-yl]pyrrolo[2,1-f][1,2,4]triazin-5-yl-2-fluorophenyl)-N′-[2-fluoro-5-(trifluoromethyl)-phenyl]urea]
< 10 nM |  | CN1CCC(c2cc(-c3ccc(NC(=O)Nc4cc(C(F)(F)F)ccc4F)c(F)c3)c3c(N)ncnn23)CC1 [Example 113, N-4-[4-amino-7-(1-methylpiperidin-4-yl)pyrrolo[2,1-f][1,2,4]triazin-5-yl]-2-fluorophenyl-N′-[2-fluoro-5-(trifluoromethyl)phenyl]urea]
< 10 nM |  | Nc1ncnn2c(C3CCN(C(=O)CO)CC3)cc(-c3ccc(NC(=O)Nc4cc(C(F)(F)F)ccc4F)c(F)c3)c12 [Example 114, N-4-[4-amino-7-(1-glycoloylpiperidin-4-yl)pyrrolo[2,1-f][1,2,4]triazin-5-yl]-2-fluorophenyl-N′-[2-fluoro-5-(trifluoromethyl)phenyl]urea]
10 to 100 nM |  | Nc1ncnn2c(C3CCN(C(=O)CN4CCOCC4)CC3)cc(-c3ccc(NC(=O)Nc4cc(C(F)(F)F)ccc4F)c(F)c3)c12 [Example 115, N-(4-4-amino-7-[1-(morpholin-4-ylacetyl)piperidin-4-yl]pyrrolo[2,1-f][1,2,4]triazin-5-yl-2-fluorophenyl)-N′-[2-fluoro-5-(trifluoromethyl)-phenyl]urea]
< 10 nM |  | Nc1ncnn2c(C3CCN(CCO)CC3)cc(-c3ccc(NC(=O)Nc4cc(C(F)(F)F)ccc4F)c(F)c3)c12 [Example 116, N-(4-4-amino-7-[1-(2-hydroxyethyl)piperidin-4-yl]pyrrolo[2,1-f][1,2,4]triazin-5-yl-2-fluorophenyl)-N′-[2-fluoro-5-(trifluoromethyl)phenyl]urea]
< 10 nM |  | Nc1ncnn2c(C3CCN(CC(=O)O)CC3)cc(-c3ccc(NC(=O)Nc4cc(C(F)(F)F)ccc4F)c(F)c3)c12 [Example 119, [4-(4-amino-5-3-fluoro-4-[([2-fluoro-5-(trifluoromethyl)-phenyl]aminocarbonyl)amino]phenylpyrrolo[2,1-f][1,2,4]triazin-7-yl)piperidin-1-yl]acetic acid]
< 10 nM |  | CNC(=O)CN1CCC(c2cc(-c3ccc(NC(=O)Nc4cc(C(F)(F)F)ccc4F)c(F)c3)c3c(N)ncnn23)CC1 [Example 120, 2-[4-(4-amino-5-3-fluoro-4-[([2-fluoro-5-(trifluoromethyl)phenyl]aminocarbonyl)amino]phenylpyrrolo[2,1-f][1,2,4]triazin-7-yl)piperidin-1-yl]-N-methylacetamide]
< 10 nM |  | Nc1ncnn2c(C3CCN(CC(O)CO)CC3)cc(-c3ccc(NC(=O)Nc4cc(C(F)(F)F)ccc4F)c(F)c3)c12 (stereo not drawn) [Example 121, N-(4-4-amino-7-[1-(2,3-dihydroxypropyl)piperidin-4-yl]pyrrolo[2,1-f][1,2,4]triazin-5-yl-2-fluorophenyl)-N′-[2-fluoro-5-(trifluoromethyl)-phenyl]urea]
10 to 100 nM |  | CC(C)(C)NC(=O)N1CCC(c2cc(-c3ccc(NC(=O)Nc4cc(C(F)(F)F)ccn4)c(F)c3)c3c(N)ncnn23)CC1 [Example 124, 4-4-amino-5-[3-fluoro-4-([4-(trifluoromethyl)pyridin-2-yl]carbamoylamino)phenyl]pyrrolo[2,1-f][1,2,4]triazin-7-yl-N-tert-butylpiperidine-1-carboxamide]
< 10 nM |  | Nc1ncnn2c(CN3CCOCC3)cc(-c3ccc(NC(=O)Nc4cc(C(F)(F)F)ccc4F)c(Cl)c3)c12 [Example 128, N-4-[4-amino-7-(morpholin-4-ylmethyl)pyrrolo[2,1-f][1,2,4]triazin-5-yl]-2-chlorophenyl-N′-[2-fluoro-5-(trifluoromethyl)phenyl]urea]
< 10 nM |  | Nc1ncnn2c(CN3CCOCC3)cc(-c3ccc(NC(=O)Nc4cc(C(F)(F)F)ccn4)c(Cl)c3)c12 [Example 129, N-4-[4-amino-7-(morpholin-4-ylmethyl)pyrrolo[2,1-f][1,2,4]triazin-5-yl]-2-chlorophenyl-N′-[4-(trifluoromethyl)pyridin-2-yl]urea]
10 to 100 nM |  | Cc1ccnc(NC(=O)Nc2ccc(-c3cc(CN4CCOCC4)n4ncnc(N)c34)cc2Cl)c1 [Example 133, N-4-[4-amino-7-(morpholin-4-ylmethyl)pyrrolo[2,1-f][1,2,4]triazin-5-yl]-2-chlorophenyl-N′-(4-methylpyridin-2-yl)urea]
10 to 100 nM |  | Cc1cc(NC(=O)Nc2cc(C(F)(F)F)ccc2F)c(F)cc1-c1cc(CN2CCOCC2)n2ncnc(N)c12 [Example 136, N-{4-[4-amino-7-(morpholin-4-ylmethyl)pyrrolo[2,1-f][1,2,4]triazin-5-yl]-2-fluoro-5-methylphenyl}-N′-[2-fluoro-5(trifluoromethyl)-phenyl]urea]
10 to 100 nM |  | Cc1ccc(F)c(NC(=O)Nc2cc(F)c(-c3cc(CN4CCOCC4)n4ncnc(N)c34)cc2F)c1 [Example 145, N-{4-[4-amino-7-(morpholin-4-ylmethyl)pyrrolo[2,1-f][1,2,4]triazin-5-yl]-2,5-difluorophenyl}-N′-(2-fluoro-5-methylphenyl)urea]
> 100 nM | < 1000 nM | Cc1cc(NC(=O)Nc2cc(C(F)(F)F)ccc2Cl)c(F)cc1-c1cc(CN2CCOCC2)n2ncnc(N)c12 [Example 147, N-{4-[4-amino-7-(morpholin-4-ylmethyl)pyrrolo[2,1-f][1,2,4]triazin-5-yl]-2-fluoro-5-methylphenyl}-N′-[2-chloro-5-(trifluoromethyl)phenyl]urea]
< 10 nM |  | Cc1ccc(F)c(NC(=O)Nc2ccc(-c3cc(CN4CCOCC4)n4ncnc(N)c34)cc2F)c1 [Example 149, N-{4-[4-amino-7-(morpholin-4-ylmethyl)pyrrolo[2,1-f][1,2,4]triazin-5-yl]-2-fluorophenyl}-N′-(2-fluoro-5-methylphenyl)urea]
< 10 nM |  | CN1CCN(C(=O)c2cc(-c3ccc(NC(=O)Nc4cc(C(F)(F)F)ccc4F)c(F)c3)c3c(N)ncnn23)CC1 [Example 161, N-(4-{4-amino-7-[(4-methylpiperazin-1-yl)carbonyl]pyrrolo[2,1-f][1,2,4]triazin-5-yl}-2-fluorophenyl)-N′-[2-fluoro-5-(trifluoromethyl)phenyl]urea]
< 10 nM |  | Nc1ncnn2c(CN3CCNC(=O)C3)cc(-c3ccc(NC(=O)Nc4cc(C(F)(F)F)ccn4)c(F)c3)c12 [Example 163, N-(4-{4-amino-7-[(3-oxopiperazin-1-yl)methyl]-pyrrolo [2,1-f][1,2,4]triazin-5-yl}-2-fluorophenyl)-N′-[4-(trifluoromethyl)-pyridin-2-yl]urea]
< 10 nM |  | Nc1ncnn2c(CN3CCNC(=O)C3)cc(-c3cc(F)c(NC(=O)Nc4cc(C(F)(F)F)ccc4F)cc3F)c12 [Example 164, N-(4-{4-amino-7-[(3-oxopiperazin-1-yl)methyl]-pyrrolo [2,1-f][1,2,4]triazin-5-yl}-2,5-difluorophenyl)-N′-[2-fluoro-5-(trifluoromethyl)phenyl]urea]
< 10 nM |  | Cc1cc(-c2cc(CN3CCNC(=O)C3)n3ncnc(N)c23)ccc1NC(=O)Nc1cc(C(F)(F)F)ccc1F [Example 165, N-(4-{4-amino-7-[(3-oxopiperazin-1-yl)methyl]-pyrrolo[2,1-f][1,2,4]triazin-5-yl}-2-methylphenyl)-N′-[2-fluoro-5-(trifluoromethyl)-phenyl]urea]
